Results on 3 compounds are retold here after patent US20250171457A1, “NITROGEN-CONTAINING HETEROCYCLIC COMPOUND HAVING NRF2 ACTIVATION EFFECT” (CHUGAI SEIYAKU KABUSHIKI KAISHA, priority 2022, published 2025).

Experiment [1] deals with Nqo1 (NAD(P)H quinone dehydrogenase 1) mRNA, Nrf2 downstream molecule. Briefly: In vivo Nrf2 transcriptional activity measurement (Nqo1 mRNA in organs by qPCR). The note with it: Mus musculus, C57BL/6J mice, 7 to 8 hours; for fold induction at 15 mg/kg: ip, Intraperitoneal; for fold induction at 30 mg/kg: Oral. On the procedure: Test Example 2: In Vivo Nrf2 Transcriptional Activity Measurement
A test compound (solvent: 10 vol % dimethyl sulfoxide/50 mM glycine/32 mM sodium hydroxide/physiological saline) was administered to C57BL/6J mice (7-8 weeks old), which were euthanized by whole blood collection under isoflurane anesthesia 7 to 8 hours later, followed by the collection of various organs. mRNA was purified from the collected organs, and the mRNA expression level of Mapk1 as an internal control and the mRNA expression level of Nqo1 (NAD(P)H quinone dehydrogenase 1) as a typical Nrf2 downstream molecule were each measured by qPCR. The Nqo1 mRNA expression level was quantified by comparative CT, and an expression level ratio to a non-administration group was calculated. The administration of the test compound elevated the Nqo1 mRNA expression level in the various organs, confirming that the test compound also has a Nrf2-activating effect in vivo.
Background: Quantitative PCR measures a nucleic acid by following its amplification.

For experiment [2], the system named is Nrf2 transcriptional activity (pARE-Luc reporter) in HepG2 cells. The experiment is described as follows: In vitro Nrf2 transcriptional activity measurement by ARE-dependent reporter assay in HepG2 cell. The class given is cell-based, human. The method, boiled down:
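HepG2 cells transfected with pGL4.37 (pARE-Luc), replated onto compound and incubated 4 h at 37° C; luciferase read by Bright-Glo luminescence. Response normalized to 100% set by a reference compound at 3.75 μM; EC50 from dose-response curve.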
A general note: In a reporter assay the amount or activity of a reporter protein is the signal.

[3] abbreviates: kidney, read-out: Nqo1 mRNA expression level ratio to non-administration group, Kidney.
Setting [4] is: liver, read-out: Nqo1 mRNA expression level ratio to non-administration group, Liver.
[5] abbreviates: lung, read-out: Nqo1 mRNA expression level ratio to non-administration group, Lung.

Like-named read-outs stand apart in the source and are kept apart here.

One may read the EC50 as the concentration giving half of the maximal effect. Low readings indicate an effect from little substance, high ones a need for much substance. `COC1CC2(C1)CN(c1cc(Cl)c(C(=O)N3COc4c(cccc4-c4cc(N5C6CCC5COC6)c(C(=O)O)cc4F)C3)c(Cl)c1)C2` [Compound 13-16, 4-[3-[2,6-Dichloro-4-(6-methoxy-2-azaspiro[3.3]heptan-2-yl)benzoyl]-2,4-dihydro-1,3-benzoxazin-8-yl]-5-fluoro-2-(3-oxa-8-azabicyclo[3.2.1]octan-8-yl)benzoic acid]: the results for the fold induction at 15 mg/kg in experiment [1] (setting [3]), in experiment [1] (setting [4]) and in experiment [1] (setting [5]) were 4.8, 6.6 and 20, respectively. The values for the fold induction at 30 mg/kg in experiment [1] (setting [3]), in experiment [1] (setting [4]) and in experiment [1] (setting [5]) were 4.5, 6 and 22, respectively. In addition, in experiment [2] (HepG2 cells, pARE-Luc reporter, 4 hours, 100% = Example 1-54 or Example 17-23 at 3.75 μM), the concentration giving a half-maximal response (EC50) stood at 0.95 nM.

Take `C[C@@H]1CN(c2ccc(C(=O)N3COc4c(cccc4-c4cc(N5C6CCC5COC6)c(C(=O)O)cc4F)C3)c(Cl)c2)[C@H](C)CN1C` [Compound 13-21, 4-[3-[2-Chloro-4-[(2R,5R)-2,4,5-trimethylpiperazin-1-yl]benzoyl]-2,4-dihydro-1,3-benzoxazin-8-yl]-5-fluoro-2-(3-oxa-8-azabicyclo[3.2.1]octan-8-yl)benzoic acid]: the fold induction at 30 mg/kg was 2.9 in experiment [1] (setting [3]), 4.9 in experiment [1] (setting [4]) and 3.6 in experiment [1] (setting [5]). In experiment [2] (HepG2 cells transfected with pARE-Luc, 4 hours at 37° C., luciferase activity of Example 1-54 or Example 17-23 at 3.75 μM defined as 100%, second printing of Table 20-1), this compound displayed a 50% effective concentration (EC50) of 2.3 nM.

`Cn1cc(-c2cc(Cl)c(C(=O)N3COc4c(cccc4-c4ccc(C(=O)O)c(N5CCOCC5)c4)C3)c(Cl)c2)cn1` [Compound 14-1, 4-[3-[2,6-Dichloro-4-(1-methylpyrazol-4-yl)benzoyl]-2,4-dihydro-1,3-benzoxazin-8-yl]-2-morpholin-4-ylbenzoic acid]: the values for the fold induction at 30 mg/kg in experiment [1] (setting [3]), in experiment [1] (setting [4]) and in experiment [1] (setting [5]) were 5.7, 4.2 and 17, respectively. In addition, in experiment [2] (Homo sapiens, HepG2 cells transfected with pARE-Luc, 4 hours at 37° C., luciferase activity of Example 1-54 or Example 17-23 at 3.75 μM defined as 100%), a half-maximal effect (EC50) was put at 3.2 nM.
